These results are taken from ChEMBL document CHEMBL1142453, “Imidazoles: SAR and development of a potent class of cyclin-dependent kinase inhibitors” (Bioorg Med Chem Lett, 2008).

For orientation: IC50 means the concentration needed to halve the response being measured. The fraction unbound is free concentration divided by total concentration. The term logD denotes the decadic logarithm of the distribution of all forms, ionised or not, between an organic phase and buffer at a given pH. A low value points to a more hydrophilic compound. As a reminder, the solubility is the concentration that dissolves in the medium under given conditions. High values mean much dissolved substance, low ones little dissolved substance. In general, clearance refers to a measure of how efficiently the substance is removed, as volume per time. By AUC(0-t) is commonly meant exposure summed from dosing to a finite time, without extrapolation to infinity. A high value points to more exposure. As a reminder, the Cmax is the maximum level reached in the sampled fluid or tissue. Usually Tmax stands for the time from dosing to the highest level. Usually bioavailability stands for dose-corrected exposure relative to a reference, in per cent. Low readings indicate little systemic uptake, high ones much systemic uptake.

≈ marks a conversion by molar mass, not a printed value.

Series [1] addresses Cyclin-dependent kinase 2 (Homo sapiens, UniProt P24941). As to the kind of experiment: Inhibition of CDK2.
For series [2], the system named is MCF7. As to the kind of experiment: Antiproliferative activity against human MCF7 cells assessed as BrdU incorporation after 48 hrs. Format: functional, cell-based. The following applies: MCF7, 48 h. On the technique in general: Uptake of a labelled nucleoside into DNA is a usual measure of proliferation.
The nature of series [3]: Fraction unbound in rat serum. Format: ADME, cell-free.
Series [4] can be described thus: Lipophilicity, log D at pH 7.4. Conditions: buffer.
Series [5] concerns the target Cyclin-dependent kinase 4 (Homo sapiens, UniProt P11802). As to the kind of experiment: Inhibition of CDK4.
Series [6] deals with LoVo. As to the kind of experiment: Antiproliferative activity against human LoVo cells assessed as BrdU incorporation after 48 hrs. The format is functional, cell-based.
Series [7] is described as follows: physchem. The following applies: buffer, pH 7.4.
In series [8] the target is G1/S-specific cyclin-E1 (Homo sapiens, UniProt P24864). As to the kind of experiment: Inhibition of Cyclin E/CDK2.
Series [9] addresses G2/mitotic-specific cyclin-B1 (Homo sapiens, UniProt P14635). As to the kind of experiment: Inhibition of Cyclin B1/CDK1.
The target of series [10] is T1, G1/S-specific cyclin-D3 (Homo sapiens, UniProt P30281).
T1 sequence (P30281 whole entry): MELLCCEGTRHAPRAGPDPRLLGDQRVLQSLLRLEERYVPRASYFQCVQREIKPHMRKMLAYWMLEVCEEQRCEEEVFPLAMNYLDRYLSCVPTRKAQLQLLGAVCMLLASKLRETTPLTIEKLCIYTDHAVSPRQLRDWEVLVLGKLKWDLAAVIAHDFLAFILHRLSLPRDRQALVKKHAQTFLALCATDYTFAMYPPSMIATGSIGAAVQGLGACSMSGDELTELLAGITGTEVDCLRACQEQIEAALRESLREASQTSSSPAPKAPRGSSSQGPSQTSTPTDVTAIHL
As to the kind of experiment: Inhibition of Cyclin D3/CDK6.

Series [11] can be described thus: Volume of distribution at steady state in mouse at 5.5 mg/kg, iv. Format: ADME, organism-based. Details: dose 5.5 mg/kg, route intravenous. The following applies: in vivo, read-out: Vdss.
The nature of series [12]: Clearance in mouse at 5.5 mg/kg, iv. The format is ADME, organism-based. Also noted: dose 5.5 mg/kg, route intravenous. Conditions: in vivo.
Series [13] is described as follows: AUC (0 to t) in mouse at 10 mg/kg, po. The format is ADME, organism-based. Details: dose 10 mg/kg, route oral. Conditions: plasma.
A short description of series [14]: Cmax in mouse at 10 mg/kg, po. Format: ADME, organism-based. Also noted: dose 10 mg/kg, route oral. Conditions: in vivo.
A short description of series [15]: Tmax in mouse at 10 mg/kg, po. The format is ADME, organism-based. Details: dose 10 mg/kg, route oral. The following applies: in vivo.
Series [16] can be described thus: Oral bioavailability in mouse at 10 mg/kg. Format: ADME, organism-based. Conditions: in vivo.

Sequence of Cyclin-dependent kinase 4 (P11802 whole entry): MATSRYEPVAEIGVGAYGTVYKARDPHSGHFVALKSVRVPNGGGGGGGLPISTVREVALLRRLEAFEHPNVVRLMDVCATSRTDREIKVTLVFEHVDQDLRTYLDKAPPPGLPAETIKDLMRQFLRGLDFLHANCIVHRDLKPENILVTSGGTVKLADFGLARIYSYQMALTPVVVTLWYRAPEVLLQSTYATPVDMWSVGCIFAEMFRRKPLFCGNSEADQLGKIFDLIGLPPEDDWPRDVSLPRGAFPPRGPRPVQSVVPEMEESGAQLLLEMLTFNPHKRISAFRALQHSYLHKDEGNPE
Sequence of G1/S-specific cyclin-E1 (P24864 whole entry): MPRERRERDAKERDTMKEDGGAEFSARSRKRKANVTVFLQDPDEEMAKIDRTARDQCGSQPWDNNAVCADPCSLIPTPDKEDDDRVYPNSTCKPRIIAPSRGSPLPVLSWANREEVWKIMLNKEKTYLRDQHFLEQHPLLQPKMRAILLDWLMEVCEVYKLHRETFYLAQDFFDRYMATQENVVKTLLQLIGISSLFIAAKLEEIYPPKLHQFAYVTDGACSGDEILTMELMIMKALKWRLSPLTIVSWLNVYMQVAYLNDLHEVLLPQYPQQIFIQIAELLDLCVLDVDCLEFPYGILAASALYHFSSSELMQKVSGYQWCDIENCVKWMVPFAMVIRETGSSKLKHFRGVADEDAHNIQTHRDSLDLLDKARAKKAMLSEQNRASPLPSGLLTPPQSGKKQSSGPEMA
Sequence of G2/mitotic-specific cyclin-B1 (P14635 whole entry): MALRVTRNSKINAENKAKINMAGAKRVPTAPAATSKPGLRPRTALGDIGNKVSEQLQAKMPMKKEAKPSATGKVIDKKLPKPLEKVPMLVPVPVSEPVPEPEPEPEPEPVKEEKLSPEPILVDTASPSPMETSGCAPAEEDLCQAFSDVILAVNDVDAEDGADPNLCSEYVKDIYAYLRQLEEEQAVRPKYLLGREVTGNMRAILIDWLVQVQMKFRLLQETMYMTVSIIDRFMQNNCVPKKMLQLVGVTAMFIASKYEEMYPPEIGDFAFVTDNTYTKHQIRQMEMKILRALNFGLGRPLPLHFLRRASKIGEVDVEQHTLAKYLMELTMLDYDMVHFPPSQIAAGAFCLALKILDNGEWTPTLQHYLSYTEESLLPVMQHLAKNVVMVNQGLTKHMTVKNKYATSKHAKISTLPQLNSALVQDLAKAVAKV

`COCCNS(=O)(=O)c1ccc(Nc2nccc(-c3cnc4ccccn34)n2)cc1`: the figures for the IC50 in series [1] and in series [2] were under 12 nM and 400 nM, respectively.
In the case of `COCCNS(=O)(=O)c1ccc(Nc2nccc(-c3cnc4cccnn34)n2)cc1`, the fraction unbound in [3] turned out to be 0.008.
`Cc1ncc(-c2ccnc(Nc3ccc(S(=O)(=O)CCCN(C)C)cc3)n2)n1C(C)C` displayed a logD in series [4] of 1.3. The compound further yielded a fraction unbound in [3] of 0.32. The IC50 stood at 36 nM in [1], 140 nM in series [5] and 890 nM in series [6]. In series [7], this compound displayed a solubility of over 6800 µM.
As for `Cc1ncc(-c2ccnc(Nc3ccc(S(=O)(=O)CCCN4CCOCC4)cc3)n2)n1C(C)C`, the IC50 is 33 nM in series [1], 210 nM in series [5] and 1200 nM in series [6].
Turning to `Cc1ncc(-c2ccnc(Nc3ccc(S(=O)(=O)Cc4ccccc4)cc3)n2)n1C(C)C`, the IC50 in series [1] turned out to be 19 nM; in [5], 1500 nM; in series [6], 1500 nM.
Regarding `COCCNS(=O)(=O)c1ccc(Nc2nccc(-c3c(C)nc(C)n3C)n2)cc1`, the values for the IC50 in series [1], in series [5] and in series [6] were 68 nM, over 8600 nM and 9200 nM, respectively.
In series [1], `Cc1ncc(-c2ccnc(Nc3ccc(S(=O)(=O)CCCN(C)C)cc3)n2)n1C` displayed an IC50 of 295 nM.
For the compound `COCCNS(=O)(=O)c1ccc(Nc2nccc(-c3cnc(C)n3C(C)C)n2)cc1`, the IC50 in [5] was 200 nM; in [6] it was 310 nM.
Consider `COCCNS(=O)(=O)c1ccc(Nc2nccc(-c3cnc(C)n3C3CCCC3)n2)cc1`, for which the results for the IC50 in series [1] and in series [6] were under 3 nM and 610 nM, respectively.
Turning to `CN(C)CCNS(=O)(=O)c1ccc(Nc2nccc(-c3cnc4cccnn34)n2)cc1`, the IC50 in series [2] amounted to 260 nM.
As for `Cc1ncc(-c2ccnc(Nc3ccc(S(N)(=O)=O)cc3)n2)n1C`, the IC50 was 11 nM in series [1] and 870 nM in series [2].
`CCCS(=O)(=O)c1ccc(Nc2nccc(-c3cnc(C)n3C(C)C)n2)cc1`: the IC50 in series [1] stood at 8 nM; in series [6] it was 1800 nM.
On to `CNS(=O)(=O)c1ccc(Nc2nccc(-c3cnc(C)n3C)n2)cc1`, for which the IC50 in series [1] is under 3 nM; in series [2], 500 nM.
As to `Cc1ncc(-c2ccnc(Nc3ccc(S(=O)(=O)NCCN(C)C)cc3)n2)n1C`, the IC50 in [1] stood at 25 nM; in series [2], 490 nM.
Turning to `COCCN(C)S(=O)(=O)c1ccc(Nc2nccc(-c3cnc(C)n3C)n2)cc1`, in series [1], the IC50 was found to be 400 nM.
In series [3], `CCn1c(-c2ccnc(Nc3ccc(S(=O)(=O)NCCOC)cc3)n2)cnc1C` gave a fraction unbound of 0.014. Also, the figures for the IC50 in [1], in [5] and in series [6] were 4 nM, 1300 nM and 1500 nM, respectively.
As for `COCCNS(=O)(=O)c1ccc(Nc2nccc(-c3cnc(C)n3CC(C)C)n2)cc1`, the IC50 in [1] was 15 nM; in series [6], 1800 nM.
The compound `CCn1c(-c2ccnc(Nc3ccc(S(C)(=O)=O)cc3)n2)cnc1C` showed a concentration for half-maximal inhibition (IC50) in series [1] of 23 nM.
`CN(C)CCCNS(=O)(=O)c1ccc(Nc2nccc(-c3cnc4cccnn34)n2)cc1` gave a logD in series [4] of 1.4. Besides, the fraction unbound in series [3] was determined as 0.148. In addition, the solubility in series [7] was 160 µM (≈ 72.4 µg/mL).
In the case of `Cc1ncc(-c2ccnc(Nc3ccc(S(=O)(=O)CC4CCCO4)cc3)n2)n1C(C)C` (stereo not drawn), the IC50 in series [1] was determined as 13 nM; in series [5], 530 nM; in series [6], 1200 nM.
Taken in the same sequence, the figures for `COCCS(=O)(=O)c1ccc(Nc2nccc(-c3cnc(C)n3C(C)C)n2)cc1` were 14 nM, 490 nM and 690 nM.
On to `CNS(=O)(=O)c1ccc(Nc2nccc(-c3cnc4cccnn34)n2)cc1`, for which the values for the IC50 in series [1] and in series [2] were under 3 nM and 560 nM, respectively.
Consider `COCCNS(=O)(=O)c1ccc(Nc2nccc(-c3cnc(C)n3C)n2)cc1`, for which the 50% inhibitory concentration (IC50) turned out to be 8 nM in [1], 5600 nM in series [5], 620 nM in series [2] and 4000 nM in [6].
As to `Cc1ncc(-c2ccnc(Nc3ccc(S(=O)(=O)NCCCOC(C)C)cc3)n2)n1C`, the IC50 in [1] came out at 6 nM; in [2] it was 320 nM.
For `CN(C)CCNS(=O)(=O)c1ccc(Nc2nccc(-c3cnc4ccccn34)n2)cc1`, the logD in series [4] came to 2.7. The same compound displayed a fraction unbound in series [3] of 0.03. The compound also gave a solubility in series [7] of 31 µM (≈ 13.6 µg/mL).
`NS(=O)(=O)c1ccc(Nc2nccc(-c3cnc4ccccn34)n2)cc1`: the logD in [4] is 2.7. In series [3], this compound came in with a fraction unbound of 0.001. In addition, the IC50 in series [1] is 2 nM; in series [2], 260 nM. In addition, in series [7], the concentration in solution (solubility) was 6.5 µM (≈ 2.38 µg/mL).
Consider `Cc1ncc(-c2ccnc(Nc3ccc(S(C)(=O)=O)cc3)n2)n1C(C)C` [AZD-5438], for which the IC50 was found to be 6 nM in series [8], 16 nM in series [9], 21 nM in series [10] and 630 nM in series [6]. Moreover, the logD in series [4] turned out to be 2.4. Also, the fraction unbound in series [3] is 0.087. Moreover, the Vd in series [11] turned out to be 1.01 L/kg. In [12], this compound came in with a clearance of 21.8 mL/min/kg. This compound yielded an AUC(0-t) in series [13] of 18.7 µM·h. Besides, the Cmax in series [14] came out at 6.4 µM. Besides, the Tmax in [15] was 19.8 min. In addition, the bioavailability in series [16] is 91%. In [7], this compound yielded a solubility of 218 µM (≈ 81 µg/mL).
